Measured values: patent publication US6780883B2, “Amide inhibitors of microsomal triglyceride transfer protein” (Warner-Lambert Company, priority 1998, dated 2004)

Legend:
[1] = biological target: apolipoprotein(a), [apo(a)], apolipoproteinB-100, [apoB-100], coupling reaction that generates Lp(a) (Homo sapiens, UniProt P04114+P08519); assay: LPABC screen: lipoprotein(a) biochemical coupling assay, Lp(a) content by ELISA; conditions: recombinant apo(a) 17-kringle (293 cell media) + HepG2 conditioned media, 67 minutes, 37° C., 0.3 to 50 μM compound; read-out: Lp ABC IC50
Method in brief: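 Conditioned medium from 293 cells stably expressing 17-kringle apo(a), diluted 1:3 in PBS and prewarmed 10 min at 37 °C, mixed with compound (added as 0.3–50 μM PBS solution) then 1:3-diluted HepG2 conditioned medium as apoB-100 source. Incubated 67 min at 37 °C; Lp(a) formed quantified by ELISA.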

[2] = test system: Lp(a) production in HepG2^K17 cells; assay: LPA3 screen: inhibition of Lp(a) production in transfected HepG2 cells, Lp(a) in media by ELISA; assay type: cell-based; conditions: Homo sapiens, 8 hours, 0.3 to 50 μM compound, Lp(a) normalized for total protein, read-out: Lp A3 IC50
Method in brief: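 HepG2 cells stably expressing apo(a) 17-kringle construct, seeded overnight, then exposed to 0.3 to 50 μM compound for 8 h at 37 °C. Lp(a) secreted into media measured by ELISA and normalized to total cellular protein.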

IC50 [1] | Compound | IC50 [2]
> 15 µM | COc1ccc(N(Cc2ccccc2-c2ccccc2)C(=O)c2ccccc2[S+]([O-])C(C)C)cc1 (centres unmarked) [Example 139, N-Biphenyl-2-ylmethyl-N-(4-methoxy-phenyl)-2-(propane-2-sulfinyl)-benzamide] | 3.5 µM
> 15 µM | O=C(c1ccccc1[S+]([O-])c1ccccc1)N(Cc1ccccc1-c1ccccc1)c1ccc(Cl)cc1 (centres unmarked) [Example 140, 2-Benzenesulfinyl-N-biphenyl-2-ylmethyl-N-(4-chloro-phenyl)-benzamide] | 24.9 µM
> 50 µM | CCC[S+]([O-])c1ccccc1C(=O)N(Cc1ccccc1-c1ccccc1)c1ccc(OC)c(OC)c1 (centres unmarked) [Example 141, N-Biphenyl-2-ylmethyl-N-(3,4-dimethoxy-phenyl)-2-(propane-1-sulfinyl)-benzamide] | 6 µM
> 50 µM | COc1ccc(N(Cc2ccccc2-c2ccccc2)C(=O)c2ccccc2[S+]([O-])C(C)C)cc1OC (centres unmarked) [Example 142, N-Biphenyl-2-ylmethyl-N-(3,4-dimethoxy-phenyl)-2-(propane-2-sulfinyl)-benzamide] | 7 µM
